Source: patent US11793199B2, “Formulations and methods for controlling rootworm larvae” (FMC Corporation, priority 2016, dated 2023)

How the values were obtained:
2nd instar WCRW = assay: Residual activity of treated Midwestern soil kept in lab at 15% moisture (Example 5); format: in vivo, Diabrotica virgifera virgifera
Method: In order to induce seed germination prior to test initiation, corn seed was submerged in water for 12 h and then placed between layers of moistened paper towel for 72 h. Plastic Dart® containers (1 oz/30 ml) were utilized for the assay. Treatments included tetraniliprole Test Formula according to the present invention, Capture LFR® (bifenthrin), and Rugby® (cadusafos). A 60 g ai/ha foliar rate applied at a volume of 30GPA equates to 213.8 ppm. If this application rate was condensed into a 6″ T-band application that assumed a 30″ row spacing, the ppm rate would increase to 1069 ppm (213.8 ppm×5). Five rates were selected for the experimental treatment (Test Formula) and compared to a single rate of two standard treatments (Capture LFR and Rugby). Treatment solutions (Table 4) were mixed into dry, sifted, Midwestern soil, from Wyoming, Illinois, by adding 300mLs of solution into 2000 g of soil and equates to approximate 15% soil moisture value; soil clumped when pinched.
An estimated 0.75 cm of treated soil was placed into the bottom of each container, one germinated corn seed was placed onto the soil, and then the arenas were capped with a lid until rootworms were infested. Corn was covered with approximately 1.75 cm of treated soil. Using a fine tipped paint brush, 5 WCRW larvae (2nd instar) were transferred onto the soil of each replicate and then capped. There were 8 replicates and 40 larvae per treatment. Arenas containing soil, corn, and larvae were transferred into the Insectary room (≈23° C., 0 L:24D) and evaluated 6 days later for the presence of living larvae. Larvae not recovered within each arena were considered dead. Additional treated soil was maintained within a 5 gallon bucket, covered with aluminum […], and weights recorded. Additional water was added every Monday in order to maintain a 15% soil moisture level.
All mortality data was analyzed by ANOVA/GLM with an alpha of 0.1 (Minitab 16.0).

WCRW larvae = assay: Residual activity of treated soil maintained outdoors, water pH 6, 7, 8 (Example 4); format: in vivo, Diabrotica virgifera virgifera
Method: A solution of the Test Formula A was prepared by making dilutions in water to form a solution. Dry, Midwestern soil was brought up to 15% moisture with treatment solutions (Table 5). Buckets of treated soil were carted outside daily between Monday and Friday and exposed to direct sunlight. Carts were not wheeled out on days that forecasted precipitation. At the end of each day, soil buckets were brought back into the laboratory, weighed, the appropriate amount of water added to the soil to bring it back up to 15% moisture, and covered overnight; daily records of weights and amount of water added to each bucket was recorded.
At 30DAT, 42DAT, 57DAT, and 85DAT, […] WCRW larvae were infested into treated soil containing and germinating corn seed and evaluated 6 days after infestation (6DAI) for percent control and larval stunting. There were 6 replicates per infestation date with 5 larvae per replicate (n=30). Treatments applied to dry Midwestern soil for assessment of residual WCRW included Test Formula at 67, 267, and 1,069 ppm, Capture LFR at 1988.5 and 3,977 ppm.

## tetraniliprole
2nd instar WCRW; 3.75 g ai/ha, 0 DAT
  size of larvae: approximately half the size as the untreated check
2nd instar WCRW; 15, 30, 60 g ai/ha, lab soil at 15% moisture
  control to 2nd instar WCRW larvae at 64DAT: ≥ 95%
2nd instar WCRW; all treated soils, 0 DAT
  larval stunting compared to the untreated check: Stunted larvae were detected
  protection to the root and shoot system of corn: evident
2nd instar WCRW; lab soil 15% moisture, 66.8 ppm (3.75 g ai/ha in-furrow), after 144 h within treated soil
  2nd instar WCRW: % Mortality 0DAT: < 80%
2nd instar WCRW; lab soil 15% moisture, 133.6 ppm (7.5 g ai/ha in-furrow), after 144 h within treated soil
  2nd instar WCRW: % Mortality 0DAT: < 80%
2nd instar WCRW; lab soil, 534.5 ppm (30 g ai/ha in-furrow), after 144 h
  2nd instar WCRW: % Mortality 0DAT: 97.5%
2nd instar WCRW; lab soil, 1069 ppm (60 g ai/ha in-furrow), after 144 h
  2nd instar WCRW: % Mortality 0DAT: 97.5%
WCRW larvae; 67 ppm (3.75 g ai/ha), soil kept outdoors, water pH 6, 7 or 8
  control to WCRW larvae: ≥ 87%
WCRW larvae; 67 ppm, 57 DAT and 85 DAT
  state of surviving larvae compared to the non-treated check: severely stunted
